Measured values as given in patent US10548883B2, “Benzotriazole-derived α and β-unsaturated amide compound used as TGF-β RI inhibitor” (GENFLEET THERAPEUTICS (SHANGHAI) INC., priority 2016, dated 2020).
“And” between values parts separate entries of the source, which are not always exact repeats. Identical values can stand only once.

How the values were obtained:
TGF-βRI = target: T1, TGF-βRI (Homo sapiens, UniProt P36897); assay: Test of inhibitory activity of TGFβ-RI in vitro; format: biochemical; conditions: 10 μM ATP
T1 sequence (P36897 34-503): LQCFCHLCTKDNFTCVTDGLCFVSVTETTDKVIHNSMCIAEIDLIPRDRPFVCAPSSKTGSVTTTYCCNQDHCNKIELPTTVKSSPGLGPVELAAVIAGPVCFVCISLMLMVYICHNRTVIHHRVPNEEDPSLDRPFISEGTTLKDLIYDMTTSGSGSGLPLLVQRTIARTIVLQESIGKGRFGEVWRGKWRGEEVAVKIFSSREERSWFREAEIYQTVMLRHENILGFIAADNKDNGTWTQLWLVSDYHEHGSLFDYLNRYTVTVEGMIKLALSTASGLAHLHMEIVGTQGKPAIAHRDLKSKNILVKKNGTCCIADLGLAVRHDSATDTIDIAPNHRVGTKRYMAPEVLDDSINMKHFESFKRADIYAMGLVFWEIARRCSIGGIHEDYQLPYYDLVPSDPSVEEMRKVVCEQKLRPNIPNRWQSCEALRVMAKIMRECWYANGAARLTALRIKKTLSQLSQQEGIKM
Experimental: i) Test compound: the IC50 was determined by diluting into 10 gradient points with each gradient by three-fold dilution and with a starting concentration of 5 μM.
ii) The IC50 of reference compound LDN193189 was determined by diluting into 10 gradient points with each gradient by three-fold dilution and with a starting concentration of 20 μM.
iii) The reaction system contains 10 μM ATP.
iv) Calculate the IC50 value by curve fitting when the percentage of enzyme activity (compared to the solvent group) is below 65% at the highest concentration of the sample.

CT-26 cells = assay: Tumor cell proliferation inhibition in BALB/c mouse model of subcutaneously transplanted CT-26 cells, alone or combined with BioXcell-mPD-L1; format: in vivo; conditions: for Tumor volume: average ± SEM, small molecules 75 mg/kg PO twice a day, BioXcell-mPD-L1 10 mg/kg IP twice a week
Experimental: The following table lists the animal grouping and dosing regimen of embodiment 1, the positive reference compound LY2157299 and the BioXcell PD-L1 monoclonal antibody (BioXcell-mPD-L1), which are used alone or in combination in vivo.
Mouse colon cancer CT-26 cells were cultured in vitro in a single layer, and culture conditions is RPMI1640 medium (Medium No. 1640, Roswell Parker Memorial Institute) supplemented with 10% fetal bovine serum at 37° C., 5% CO2. Passage was routinely digested with trypsin-EDTA twice a week. When the cell saturation is 80%-90%, the cells are collected, counted, and inoculated.
0.1 mL (1×10^5) CT-26 cells were subcutaneously inoculated into the right back of each BALB/c mouse. The mice were administered in groups according to the body weight of the mice on the second day after cell inoculation.
The experimental indicator is to investigate whether tumor growth is inhibited, delayed or cured. Tumor diameters were measured with Vernier calipers twice a week. The tumor volume is calculated as: V=0.5a×b^2, and a and b represent the long and short diameters of the tumor, respectively.
The antitumor effect of the compound was evaluated by TGI (%) or tumor proliferation rate T/C (%). TGI (%) reflects the tumor growth inhibition rate. Calculation of TGI (%): TGI (%)=[(1-(mean tumor volume at the end of administration of a treatment group—mean tumor volume at the start of administration of the treatment group))/(mean tumor volume at the end of treatment of the solvent control group)—mean tumor volume at the start of treatment of the solvent control group)]×100%.
Tumor proliferation rate T/C (%): The formula is as follows: T/C %=T/C×100% (T: treatment group; C: negative control group).
Tumor weights were measured after the end of the experiment and the percentage of T/Cweight was calculated. Tweight and Cweight represent the tumor weights of the drug-administered group and the vehicle control group, respectively.
Statistical analysis, including mean and standard error (SEM) of tumor volume at each time point for each group (see Table 4 for specific data). […] T-test was used for comparison between the two groups, and one-way analysis of variance was used for comparison between three or more groups. If there was a significant difference in F values, the Gass-Howell method was used to test. If there is no significant difference in F values, the Dunnet (2-sided) method is used for analysis. All data analysis was performed with SPSS 17.0. A significant difference was considered at p<0.05.

## Cc1cccc(-c2nn3c(c2-c2ccc4ncnn4c2/C=C/C(N)=O)CCC3)n1 [Embodiment 1]
TGF-βRI
  IC50: 1 to 50 nM
CT-26 cells; day 10 of administration
  Tumor volume: 102 ± 19 mm^3
CT-26 cells; day 13 of administration
  Tumor volume: 339 ± 89 mm^3
CT-26 cells; day 15 of administration
  Tumor volume: 552 ± 147 mm^3
CT-26 cells; day 17 of administration
  Tumor volume: 874 ± 240 mm^3
CT-26 cells; day 20 of administration
  Tumor volume: 1331 mm^3 and 1331 ± 394 mm^3
CT-26 cells; twenty days after start of administration, 75 mg/kg PO and/or 10 mg/kg IP
  Tumor proliferation rate T/C: 51%
CT-26 cells; twenty days after start of administration, 75 mg/kg and/or 10 mg/kg
  Antitumor effect compared with the solvent control group: no significant antitumor effect
